The values that follow come from ChEMBL document CHEMBL1201862, “PubChem BioAssay data set” (2004).

The source made the active and inactive calls.

Assay [1] deals with Streptococcus sp. 'group A'. Put plainly: Streptococcus pyogenes SK(-)GAS viability under kanamycin – luminescence, BacTiterGlo, confirmation, counter-screen for streptokinase expression inhibitor project, dose response (AID 1900). The assay is classed as functional, organism-based.
A further assay addresses T1, Streptokinase A (Streptococcus pyogenes serotype M1, UniProt P10520).
T1 sequence (P10520 whole entry): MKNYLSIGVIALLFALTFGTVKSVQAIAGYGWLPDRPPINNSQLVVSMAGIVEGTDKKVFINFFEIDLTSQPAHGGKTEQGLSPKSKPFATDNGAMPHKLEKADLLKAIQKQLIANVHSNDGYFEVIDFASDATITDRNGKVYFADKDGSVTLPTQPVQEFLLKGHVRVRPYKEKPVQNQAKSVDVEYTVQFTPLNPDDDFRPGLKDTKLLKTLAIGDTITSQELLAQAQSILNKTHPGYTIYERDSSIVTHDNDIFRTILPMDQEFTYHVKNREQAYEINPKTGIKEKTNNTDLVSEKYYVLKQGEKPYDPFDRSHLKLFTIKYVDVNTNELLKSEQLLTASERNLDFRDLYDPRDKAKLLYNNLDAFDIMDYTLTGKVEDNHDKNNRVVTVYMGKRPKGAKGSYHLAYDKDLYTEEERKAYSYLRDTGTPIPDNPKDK
Put plainly: viability-normalized secreted streptokinase activity reduction – plasminogen activation absorbance, OD405, dose response (AID 1914).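 Note: secreted streptokinase activity via plasminogen activation per viability signal from cell pellet.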 The assay is classed as functional, Streptococcus pyogenes M1 GAS.

The test system of a further assay is Streptococcus. Briefly: GAS UMAA2166 growth inhibition – luminescence, BacTiterGlo, counter-screen for streptokinase expression inhibitor project, dose response (AID 1915).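 Note: potency for reduction of bacterial viability or growth.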 The assay is classed as functional, organism-based. A general note: Counterscreens check selectivity or assay interference.
Assay [2] deals with T2, Ubiquitin-conjugating enzyme E2 N (Homo sapiens, UniProt P61088).
T2 sequence (P61088 whole entry): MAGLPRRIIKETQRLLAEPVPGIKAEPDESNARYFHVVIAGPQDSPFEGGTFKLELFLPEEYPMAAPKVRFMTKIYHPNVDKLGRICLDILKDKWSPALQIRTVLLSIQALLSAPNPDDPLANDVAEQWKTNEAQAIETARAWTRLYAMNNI
The assay is classed as functional.

The target of a further assay is Cytochrome P450 3A4 (Homo sapiens, UniProt P08684). The following applies: Potency.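 Note: confirmatory qHTS run detecting inhibitors and substrates of CYP3A4.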
Chain of Cytochrome P450 3A4 (P08684 whole entry): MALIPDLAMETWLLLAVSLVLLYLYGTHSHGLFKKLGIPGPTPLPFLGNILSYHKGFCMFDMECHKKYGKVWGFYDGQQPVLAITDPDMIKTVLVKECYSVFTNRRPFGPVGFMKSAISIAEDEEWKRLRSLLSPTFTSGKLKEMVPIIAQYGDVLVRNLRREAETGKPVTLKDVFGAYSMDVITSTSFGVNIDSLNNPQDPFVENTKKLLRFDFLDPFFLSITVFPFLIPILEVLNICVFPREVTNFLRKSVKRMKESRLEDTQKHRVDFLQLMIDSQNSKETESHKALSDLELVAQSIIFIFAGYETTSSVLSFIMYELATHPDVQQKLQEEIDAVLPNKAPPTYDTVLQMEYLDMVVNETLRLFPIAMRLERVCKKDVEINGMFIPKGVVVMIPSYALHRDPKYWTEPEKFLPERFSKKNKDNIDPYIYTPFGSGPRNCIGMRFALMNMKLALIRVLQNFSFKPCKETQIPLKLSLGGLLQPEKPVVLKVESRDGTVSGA
Assay [3] deals with T3, Fatty acid synthase (Homo sapiens, UniProt P49327). Put plainly: inhibition of human FAS-TE enzyme activity – biochemical, endpoint fluorescence intensity, uHTS hits, dose response (AID 624327).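 Note: fluorescence from hydrolysis of an O-methyl fluorescein acyl ester substrate by the enzyme.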 Format: functional.
T3 sequence (P49327 whole entry): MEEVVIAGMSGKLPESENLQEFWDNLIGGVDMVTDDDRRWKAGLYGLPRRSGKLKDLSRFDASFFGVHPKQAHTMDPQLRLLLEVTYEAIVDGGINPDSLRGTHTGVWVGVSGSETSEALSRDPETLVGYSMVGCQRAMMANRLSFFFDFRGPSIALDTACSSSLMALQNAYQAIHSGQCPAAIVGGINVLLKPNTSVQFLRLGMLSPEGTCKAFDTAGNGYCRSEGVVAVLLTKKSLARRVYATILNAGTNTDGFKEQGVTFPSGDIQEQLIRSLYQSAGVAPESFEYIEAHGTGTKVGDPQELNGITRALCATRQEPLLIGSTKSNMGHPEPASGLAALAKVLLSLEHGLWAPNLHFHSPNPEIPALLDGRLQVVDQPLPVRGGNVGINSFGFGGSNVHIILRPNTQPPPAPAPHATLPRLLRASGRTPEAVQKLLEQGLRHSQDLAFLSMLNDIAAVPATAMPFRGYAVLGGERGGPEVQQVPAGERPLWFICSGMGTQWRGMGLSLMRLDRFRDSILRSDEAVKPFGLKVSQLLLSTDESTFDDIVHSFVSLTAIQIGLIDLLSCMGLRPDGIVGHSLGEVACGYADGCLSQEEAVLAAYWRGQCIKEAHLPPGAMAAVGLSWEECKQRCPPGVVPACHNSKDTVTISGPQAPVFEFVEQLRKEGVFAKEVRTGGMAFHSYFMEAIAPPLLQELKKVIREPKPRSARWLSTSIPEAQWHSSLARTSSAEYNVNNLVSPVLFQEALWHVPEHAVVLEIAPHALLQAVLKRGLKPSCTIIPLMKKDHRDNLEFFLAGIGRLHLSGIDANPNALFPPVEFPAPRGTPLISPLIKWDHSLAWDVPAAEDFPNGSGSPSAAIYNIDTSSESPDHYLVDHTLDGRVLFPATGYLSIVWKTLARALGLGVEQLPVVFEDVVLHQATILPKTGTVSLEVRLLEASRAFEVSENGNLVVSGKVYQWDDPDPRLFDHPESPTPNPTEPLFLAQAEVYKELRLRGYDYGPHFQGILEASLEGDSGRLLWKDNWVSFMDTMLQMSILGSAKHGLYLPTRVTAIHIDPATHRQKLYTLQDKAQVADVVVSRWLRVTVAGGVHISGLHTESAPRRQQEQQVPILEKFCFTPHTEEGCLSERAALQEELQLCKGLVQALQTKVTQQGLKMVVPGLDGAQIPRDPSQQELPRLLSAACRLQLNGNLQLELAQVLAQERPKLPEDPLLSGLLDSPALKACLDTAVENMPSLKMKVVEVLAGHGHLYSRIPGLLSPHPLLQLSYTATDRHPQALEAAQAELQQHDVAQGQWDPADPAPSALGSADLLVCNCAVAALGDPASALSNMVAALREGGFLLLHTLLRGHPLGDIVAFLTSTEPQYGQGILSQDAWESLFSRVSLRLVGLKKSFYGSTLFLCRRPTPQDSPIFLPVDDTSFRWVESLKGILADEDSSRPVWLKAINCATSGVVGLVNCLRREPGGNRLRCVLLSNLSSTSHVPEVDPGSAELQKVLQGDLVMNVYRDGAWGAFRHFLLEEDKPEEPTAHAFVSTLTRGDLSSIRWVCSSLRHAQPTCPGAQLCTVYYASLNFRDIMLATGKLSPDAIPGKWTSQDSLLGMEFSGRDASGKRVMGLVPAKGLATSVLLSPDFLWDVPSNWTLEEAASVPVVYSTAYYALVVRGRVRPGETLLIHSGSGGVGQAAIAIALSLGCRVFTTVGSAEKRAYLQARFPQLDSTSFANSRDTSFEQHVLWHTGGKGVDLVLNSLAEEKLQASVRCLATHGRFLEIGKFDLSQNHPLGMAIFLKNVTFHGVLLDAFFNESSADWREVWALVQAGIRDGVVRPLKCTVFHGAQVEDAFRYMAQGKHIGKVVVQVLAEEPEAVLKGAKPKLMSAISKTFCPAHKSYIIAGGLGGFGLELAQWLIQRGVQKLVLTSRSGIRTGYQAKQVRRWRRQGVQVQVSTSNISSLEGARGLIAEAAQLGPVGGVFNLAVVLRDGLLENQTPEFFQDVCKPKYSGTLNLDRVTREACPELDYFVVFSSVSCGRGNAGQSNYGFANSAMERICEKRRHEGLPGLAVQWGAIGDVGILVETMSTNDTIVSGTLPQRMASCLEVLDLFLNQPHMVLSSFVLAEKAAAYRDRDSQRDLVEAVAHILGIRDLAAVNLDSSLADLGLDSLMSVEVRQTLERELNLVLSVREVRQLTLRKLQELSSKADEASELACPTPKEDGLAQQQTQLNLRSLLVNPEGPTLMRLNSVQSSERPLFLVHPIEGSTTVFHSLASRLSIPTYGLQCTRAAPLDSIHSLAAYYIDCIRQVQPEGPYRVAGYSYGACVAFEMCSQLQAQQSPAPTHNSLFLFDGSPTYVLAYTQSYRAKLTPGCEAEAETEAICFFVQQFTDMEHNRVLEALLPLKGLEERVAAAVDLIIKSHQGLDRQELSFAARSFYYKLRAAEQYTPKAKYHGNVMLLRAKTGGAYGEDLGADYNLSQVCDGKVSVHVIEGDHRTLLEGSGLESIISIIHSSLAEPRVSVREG
In assay [4] the target is T3, Fatty acid synthase. Briefly: inhibition of human FAS-TE enzyme activity – biochemical, kinetic fluorescence intensity, dose response (AID 624326).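 Note: rate of fluorescence rise from hydrolysis of a fluorogenic O-methyl fluorescein ester substrate.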 The assay is classed as functional.
The test system of a further assay is Vero. Briefly: cells. Format: functional. The following applies: Chlorocebus sabaeus.
In assay [5] the target is Induced myeloid leukemia cell differentiation protein Mcl-1 (Homo sapiens, UniProt Q07820). Format: functional.
Chain of Induced myeloid leukemia cell differentiation protein Mcl-1 (Q07820 whole entry, the tested form may be a part): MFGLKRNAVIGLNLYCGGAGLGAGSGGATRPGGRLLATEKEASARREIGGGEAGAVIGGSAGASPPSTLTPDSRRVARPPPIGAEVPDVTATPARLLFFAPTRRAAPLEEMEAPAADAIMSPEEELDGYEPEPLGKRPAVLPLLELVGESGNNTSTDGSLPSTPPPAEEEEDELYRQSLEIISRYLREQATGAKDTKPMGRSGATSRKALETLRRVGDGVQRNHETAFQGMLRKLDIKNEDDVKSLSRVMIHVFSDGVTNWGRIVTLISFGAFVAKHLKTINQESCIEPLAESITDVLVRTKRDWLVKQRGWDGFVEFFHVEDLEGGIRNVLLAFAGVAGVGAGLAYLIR
Assay [6] concerns the target T4, Carboxy-terminal domain RNA polymerase II polypeptide A small phosphatase 1 (Homo sapiens, UniProt Q9GZU7).
T4 sequence (Q9GZU7 whole entry): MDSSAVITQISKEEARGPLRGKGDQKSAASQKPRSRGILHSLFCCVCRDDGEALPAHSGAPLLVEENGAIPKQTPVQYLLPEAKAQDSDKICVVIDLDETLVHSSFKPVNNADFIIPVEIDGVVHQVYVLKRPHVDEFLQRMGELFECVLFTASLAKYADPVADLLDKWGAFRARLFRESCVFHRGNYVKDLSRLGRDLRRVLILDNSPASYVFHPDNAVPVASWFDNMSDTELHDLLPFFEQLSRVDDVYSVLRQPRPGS
Briefly: CTDSP1 inhibitors, concentration-response, biochemical, absorbance readout, ultra-high-throughput screen actives (AID 540297). Format: functional.

Assay [7] concerns the target T5, Short transient receptor potential channel 4 (Mus musculus, UniProt Q9QUQ5).
T5 sequence (Q9QUQ5 whole entry): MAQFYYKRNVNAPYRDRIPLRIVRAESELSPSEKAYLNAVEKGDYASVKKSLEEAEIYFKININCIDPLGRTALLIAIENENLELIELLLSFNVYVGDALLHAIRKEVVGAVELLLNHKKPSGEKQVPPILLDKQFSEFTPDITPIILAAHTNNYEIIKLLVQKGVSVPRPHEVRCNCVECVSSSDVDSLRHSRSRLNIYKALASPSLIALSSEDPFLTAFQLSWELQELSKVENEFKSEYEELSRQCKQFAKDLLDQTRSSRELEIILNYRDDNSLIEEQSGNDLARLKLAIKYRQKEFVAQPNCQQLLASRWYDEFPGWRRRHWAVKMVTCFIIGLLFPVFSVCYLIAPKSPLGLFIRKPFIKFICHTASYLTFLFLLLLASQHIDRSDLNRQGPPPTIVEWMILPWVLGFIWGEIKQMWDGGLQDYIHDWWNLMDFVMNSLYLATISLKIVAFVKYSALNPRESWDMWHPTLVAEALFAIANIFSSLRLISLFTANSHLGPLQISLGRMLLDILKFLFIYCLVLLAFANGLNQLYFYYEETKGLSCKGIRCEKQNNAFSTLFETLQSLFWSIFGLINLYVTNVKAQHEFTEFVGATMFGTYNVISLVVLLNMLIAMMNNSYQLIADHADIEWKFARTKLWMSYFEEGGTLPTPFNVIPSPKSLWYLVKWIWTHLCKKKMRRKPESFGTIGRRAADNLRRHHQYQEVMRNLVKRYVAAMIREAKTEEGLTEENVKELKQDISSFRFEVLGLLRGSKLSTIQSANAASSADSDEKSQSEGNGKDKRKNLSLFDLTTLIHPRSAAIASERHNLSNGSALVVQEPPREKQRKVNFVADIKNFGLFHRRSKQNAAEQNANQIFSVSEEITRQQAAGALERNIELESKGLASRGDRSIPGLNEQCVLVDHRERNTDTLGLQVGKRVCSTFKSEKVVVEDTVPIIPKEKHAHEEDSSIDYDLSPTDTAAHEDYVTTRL
Briefly: calcium entry via TRPC4 opening agents – cell-based, HEK293 TRPC4/mu-opioid, Fluo-4 calcium, dose response (AID 434937). Format: functional.

Assay [8] in a line: viability of PTEN-deleted HCT116 cells – cell-based, HCT116 PTEN knockout, dose response (AID 1047).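 Note: HCT116 colon tumor cells with PTEN knocked out; cells exposed to compound for 60 hours before readout; potency for loss of cell viability measured by luminescence.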 The assay is classed as functional.
Assay [9] is described as follows: viability of HCT116 lacking mutant beta-catenin – cell-based, human colon tumor, dose response (AID 1045).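 Note: HCT116 colon tumor cells with beta catenin knocked out; cells exposed to compound for 60 hours.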 The assay is classed as functional.
Another assay concerns the target Cytochrome P450 2C19 (Homo sapiens, UniProt P33261). Briefly: Cytochrome panel assay with activity outcomes. Panel member name: p450-cyp2c19 Compounds with AC50 equal or less than 10 uM are considered active. Format: functional. To be noted: read-out: AC50.
The next assay has as its target Cytochrome P450 2C9 (Homo sapiens, UniProt P11712).
The nature of assay [10]: Trypanosoma cruzi growth suppression in host cells – NIH3T3 host cells, beta-gal luminescence, confirmation (AID 2044).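 Note: intracellular parasites grown in NIH/3T3 mouse fibroblasts as host cells; luminescent beta-galactosidase reporter signal from transgenic T. cruzi replicating inside host cells; inhibitors lower the luminescence signal.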 The assay is classed as functional, cell-based.
Assay [11] is described as follows: NIH3T3 cell viability loss – ATP luminescence, mouse fibroblasts, counter-screen, dose response (AID 2010).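 Note: cells exposed to compound for about 90 hours before reading.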 Format: functional, cell-based.

Chain of Cytochrome P450 2C19 (P33261 whole entry): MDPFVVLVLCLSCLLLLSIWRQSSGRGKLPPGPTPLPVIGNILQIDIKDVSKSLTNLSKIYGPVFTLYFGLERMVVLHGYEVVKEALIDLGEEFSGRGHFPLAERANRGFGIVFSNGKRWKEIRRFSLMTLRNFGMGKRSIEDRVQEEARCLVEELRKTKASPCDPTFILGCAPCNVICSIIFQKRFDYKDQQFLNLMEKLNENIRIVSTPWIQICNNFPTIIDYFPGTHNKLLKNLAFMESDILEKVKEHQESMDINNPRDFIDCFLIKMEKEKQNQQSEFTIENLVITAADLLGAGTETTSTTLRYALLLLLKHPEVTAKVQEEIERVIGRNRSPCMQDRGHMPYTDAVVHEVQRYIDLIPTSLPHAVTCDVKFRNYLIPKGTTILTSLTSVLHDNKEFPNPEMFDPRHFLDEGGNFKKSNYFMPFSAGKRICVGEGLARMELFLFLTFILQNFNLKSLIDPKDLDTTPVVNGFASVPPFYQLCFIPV
Chain of Cytochrome P450 2C9 (P11712 whole entry): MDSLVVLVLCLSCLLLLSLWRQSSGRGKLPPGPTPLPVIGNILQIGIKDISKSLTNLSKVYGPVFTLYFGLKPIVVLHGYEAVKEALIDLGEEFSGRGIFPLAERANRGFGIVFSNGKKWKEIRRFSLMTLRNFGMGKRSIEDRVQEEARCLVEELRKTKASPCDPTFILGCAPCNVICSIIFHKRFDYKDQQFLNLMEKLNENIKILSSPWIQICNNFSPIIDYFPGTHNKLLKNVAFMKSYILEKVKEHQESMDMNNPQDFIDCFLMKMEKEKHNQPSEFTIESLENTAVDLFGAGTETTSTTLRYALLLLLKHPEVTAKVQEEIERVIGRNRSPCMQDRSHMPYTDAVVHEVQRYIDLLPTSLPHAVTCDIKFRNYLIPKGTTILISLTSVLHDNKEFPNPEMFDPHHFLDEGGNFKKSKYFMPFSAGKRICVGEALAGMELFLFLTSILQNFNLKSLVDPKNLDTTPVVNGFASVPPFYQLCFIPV

As for `N#Cc1c(-c2c(Cl)cccc2Cl)noc1/C=C/Nc1ccc(C(=O)O)cc1`, the EC50 is 1.95 µM (active) in assay [1], > 150 µM (not active) at Streptokinase A and 17.5 µM (active) with Streptococcus. In addition, the IC50 in “cells” is 32.6 µM (active).

For `COc1ccc(C)cc1NC(=O)c1cc(S(=O)(=O)N2CCCCC2)ccc1N1CCOCC1`, in assay [2], the IC50 was > 20 µM (inactive).

In the case of `Clc1ccc(C2[C@H]3CN(Cc4ccc(-c5ccccc5)cc4)[C@H](c4ccccc4)C34CC2(c2cccnc2)C4)cn1` (some centres undefined), the AC50 at Cytochrome P450 3A4 was 15.8 µM (inconclusive).

Regarding `CC(C)c1ccc(CCNC(=O)c2ccc([N+](=O)[O-])cc2)cc1`, the IC50 was 1.51 µM (active) at Fatty acid synthase [3] and 1.71 µM (active) at Fatty acid synthase [4].

As for `Cc1cc(O)c(C(=O)/C=C/c2cccc([N+](=O)[O-])c2)c(=O)o1`, in the assay on Vero, the CC50 was 22.6 µM (active).

For the compound `O=C(CCCc1ccccc1)Nc1cccc([N+](=O)[O-])c1`, the IC50 was 7.58 µM (active) on Fatty acid synthase [3] and 3.7 µM (active) at Fatty acid synthase [4].

Regarding `COCCCNC(=O)/C(C#N)=C/c1ccc(OCC(=O)O)c(OC)c1`, the half-inhibitory concentration (IC50) is 4.75 µM (active) in assay [5] and 2.19 µM (active) in assay [6].

Turning to `CCCn1c(-c2ccc(F)cc2)nc2c(N3CCN(C)CC3)nc(C)nc21`, the AC50 at Cytochrome P450 3A4 was 12.6 µM (inconclusive).

With `N#Cc1c(-c2ccccc2)c(-c2ccccc2)nn(CC(=O)NNC(=O)Nc2ccc(Cl)cc2)c1=O`, the figures for the IC50 on Fatty acid synthase [3] and at Fatty acid synthase [4] were 3.55 µM (active) and 3.01 µM (active), respectively.

For `COc1ccc(C(=O)C2CCCN(C3CSCCSC3)C2)cc1OC` (centres undefined), in [7], the EC50 was 0.944 µM (active).

Turning to `CN(C)c1ccc(/C=C/C(=O)c2ccccc2)cc1[N+](=O)[O-]`, the EC50 in assay [8] was 8.26 µM (active); in [9] it was 7.13 µM (active).

For the compound `CC(C)c1n[nH]c2c1C(C1C=CCCC1)C(C#N)=C(N)O2` (centres undefined), the CC50 in the assay with Vero is 21.9 µM (active).

Take `NCCCCc1ccc2ccc3cccc4ccc1c2c34`: the IC50 in [2] is > 20 µM (inactive). Moreover, in the assay on Vero, the CC50 was 22.6 µM (active).

Consider `Nc1c(C(=O)NCc2ccco2)c2nc3ccccc3nc2n1Cc1ccc(F)cc1`, for which the EC50 is 168 µM (active) in [8] and 348 µM (active) in assay [9].

For `CN1C[C@@H]2C(c3ccccc3)C3(c4ccc(C#N)cc4)CC2(C3)[C@H]1c1ccccc1` (some centres undefined), the AC50 at Cytochrome P450 3A4 was 25.1 µM (inconclusive).

With `NC(=S)N=Nc1c(O)[nH]c2ccccc12`, the IC50 in assay [2] was > 20 µM (inactive).

`O=[N+]([O-])c1ccc(N2CCNCC2)cc1NC1CC1`: in assay [7], the EC50 was 0.168 µM (active). Further, the values for the AC50 on Cytochrome P450 2C19 and at Cytochrome P450 2C9 were 25.1 µM (inconclusive) and 15.8 µM (inconclusive), respectively.

With `Cc1ccccc1C(=O)Nc1nc(-c2cccnc2)cs1`, the IC50 in assay [5] was > 54 µM (active).

Turning to `c1ccc2c(c1)ccc1ncccc12`, the AC50 on Cytochrome P450 3A4 is 31.6 µM (inconclusive).

For the compound `CC1=C(/C=C/C(C)=C/C=C/C(C)=C\C=O)C(C)(C)CCC1`, the half-maximal activity concentration (AC50) at Cytochrome P450 3A4 is 31.6 µM (inconclusive).

Consider `CCCN(CCC)CCNC(=O)CCC(=O)Nc1ccc2nc(N3CCOCC3)cc(C)c2c1`, for which the EC50 in [7] was 0.473 µM (active).

As to `CN(CCc1ccccn1)C(=O)CC1C(=O)NCCN1Cc1ccccc1C(F)(F)F` (centres undefined), the EC50 in assay [7] is 5.96 µM (active).

As for `COc1ccc([C@@H]2[C@@H]3C(=O)N(C(C)(C)C)C(=O)[C@@H]3[C@]3(Cc4ccc(Cl)cc4)C(=O)N(c4ccc(Br)cc4)C(=O)N23)cc1`, the figures for the IC50 on Fatty acid synthase [3] and on Fatty acid synthase [4] were 11.5 µM (active) and 11.2 µM (active), respectively.

On to `COc1ccc(C[C@H]2CN3C(=NC[C@@H]3Cc3ccc(O)cc3)N2CCNC(=O)c2ccc(C)c(Br)c2)cc1`, for which the IC50 in assay [2] was > 20 µM (inactive).

For `CCN(CC)CCSc1nc2cc(OC)ccc2[nH]1`, the EC50 in assay [7] is 0.668 µM (active).

On to `O=C(Nc1ccn(CCCNCc2cccc3ccccc23)c(=O)n1)OCc1ccccc1`, for which the CC50 in the assay on Vero is > 25 µM (active).

`O=C(C=Cc1ccccc1)c1cccs1`: the CC50 in the assay on Vero was > 25 µM (active).

As for `CC(=O)N1N=C(c2ccc(Br)cc2)CC1c1cccc([N+](=O)[O-])c1` (centres undefined), the IC50 was 7.1 µM (active) on Fatty acid synthase [3] and 5.14 µM (active) at Fatty acid synthase [4].

With `COc1cc(/C=N/NC(=O)c2sc(N)c(C#N)c2C)ccc1O`, the IC50 in [2] is > 20 µM (inactive).

On to `C=CCn1c(/N=C/c2ccc(N(C)C)cc2)nc2ccccc21`, for which the EC50 in [7] is 6.68 µM (active).

As for `CCCCNC(=S)N(C)/N=C/c1ccc(OCC(=O)Nc2c(C)cc(C)cc2C)c(OC)c1`, the EC50 in assay [8] was 66.4 µM (active); in assay [9], 95.1 µM (active).

Take `CCCOc1ccc(/C=N/NC(=O)CSCc2ccc([N+](=O)[O-])cc2)cc1OCC`: in [2], the IC50 was 20 µM (active).

With `CCOC(=O)c1c(NC(=O)N/N=C/c2ccc(O)c(OC)c2)sc(C(C)=O)c1C`, the IC50 in assay [5] was 1.17 µM (active).

Turning to `N=c1n(CCN2CCCCC2)c2ccccc2n1CC(O)c1ccc(Cl)c(Cl)c1` (centres undefined), the EC50 in assay [10] is 2.08 µM (active); in assay [8], 4.29 µM (active); in [11] it was > 60 µM (not active); in assay [9] it was 4.25 µM (active).

`CCOC(=O)c1c(C)cc(O)c(C=O)c1O` [ETHYL HEMATOMMATE]: on Cytochrome P450 3A4, the AC50 is 39.8 µM (inconclusive).

As to `C/C=C/c1ccc2c(c1)OCO2` [ISOSAFROLE], the AC50 at Cytochrome P450 3A4 is 25.1 µM (inconclusive).

Broadly, the EC50 is the concentration giving half of the maximal effect. The IC50 is the concentration that inhibits the measured activity by half. In general, AC50 refers to the midpoint of the concentration-response curve, whichever way the signal moves. By CC50 is commonly meant the concentration at which the toxic effect on the cells reaches its halfway point.
